Reference: PubChem BioAssay AID248 (DTP/NCI, 2004)
Toxic doses and inconclusive results are not listed. No stated cut-off is given here; in the data, active means T/C of 150% or more; inactive means T/C below 125%.

Tested on: L1210 leukemia ip in BDF1 mice, survival T/C
Test: NCI In Vivo Anticancer Drug Screen. Data for tumor model L1210 Leukemia (intraperitoneal) in B6D2F1 (BDF1) mice
Conditions: endpoint: mean survival time, higher = longer survival
How it was run: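 Tumor cells were implanted, animals were treated, and survival was followed. The result divides the treated measurement by the vehicle-control measurement.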

[1] = dose: 100.0 mg/kg/injection, schedule: Q01DX009 (ip), vehicle: saline with Tween-80
[2] = dose: 100.0 mg/kg/injection, schedule: Q04DX003 (ip), vehicle: saline with Tween-80
[3] = dose: 200.0 mg/kg/injection, schedule: Q01DX009 (ip), vehicle: saline with Tween-80
[4] = dose: 200.0 mg/kg/injection, schedule: Q04DX003 (ip), vehicle: saline with Tween-80
[5] = dose: 400.0 mg/kg/injection, schedule: Q04DX003 (ip), vehicle: saline with Tween-80
[6] = dose: 100.0 mg/kg/injection, schedule: Q01DX009 (ip), vehicle: Klucel (hydroxypropylcellulose) (HPC)
[7] = dose: 200.0 mg/kg/injection, schedule: Q01DX009 (ip), vehicle: Klucel (hydroxypropylcellulose) (HPC)
[8] = dose: 400.0 mg/kg/injection, schedule: Q01DX009 (ip), vehicle: Klucel (hydroxypropylcellulose) (HPC)
[9] = dose: 100.0 mg/kg/injection, schedule: Q01DX001 (ip), vehicle: saline
[10] = dose: 200.0 mg/kg/injection, schedule: Q01DX001 (ip), vehicle: saline
[11] = dose: 400.0 mg/kg/injection, schedule: Q01DX001 (ip), vehicle: saline
[12] = dose: 50.0 mg/kg/injection, schedule: Q01DX009 (ip), vehicle: saline
[13] = dose: 200.0 mg/kg/injection, schedule: Q01DX009 (ip), vehicle: saline
[14] = dose: 100.0 mg/kg/injection, schedule: Q01DX001 (ip), vehicle: Klucel (hydroxypropylcellulose) (HPC)
[15] = dose: 100.0 mg/kg/injection, schedule: Q04DX003 (ip), vehicle: Klucel (hydroxypropylcellulose) (HPC)
[16] = dose: 200.0 mg/kg/injection, schedule: Q01DX001 (ip), vehicle: Klucel (hydroxypropylcellulose) (HPC)
[17] = dose: 200.0 mg/kg/injection, schedule: Q04DX003 (ip), vehicle: Klucel (hydroxypropylcellulose) (HPC)
[18] = dose: 400.0 mg/kg/injection, schedule: Q01DX001 (ip), vehicle: Klucel (hydroxypropylcellulose) (HPC)
[19] = dose: 400.0 mg/kg/injection, schedule: Q04DX003 (ip), vehicle: Klucel (hydroxypropylcellulose) (HPC)

Measured: T/C

O=C(/C=C/c1ccc(Br)cc1)c1ccc(Cl)cc1
inactive: [1] 96 % of control | [2] 96 % of control | [3] 96 % of control | [4] 91 % of control | dose: 400.0 mg/kg/injection, schedule: Q01DX009 (ip), vehicle: saline with Tween-80 94 % of control | [5] 92 % of control

CC(C)c1ccccc1OS(=O)(=O)c1ccccc1
inactive: [2] 91 % of control | [4] 95 % of control | [5] 98 % of control

CCC1(C)n2c(=O)c3ccccc3c(=O)n21
inactive: dose: 100.0 mg/kg/injection, schedule: Q04DX002 (ip), vehicle: saline with Tween-80 97 % of control | dose: 200.0 mg/kg/injection, schedule: Q04DX002 (ip), vehicle: saline with Tween-80 101 % of control | dose: 400.0 mg/kg/injection, schedule: Q04DX002 (ip), vehicle: saline with Tween-80 90 % of control

Cc1c(Cl)cc(C(C)C)c(O)c1CN1CCOCC1
inactive: dose: 222.0 mg/kg/injection, schedule: Q01DX Z (ip), vehicle: methylcellulose (MC) 96 % of control | dose: 333.0 mg/kg/injection, schedule: Q01DX Z (ip), vehicle: methylcellulose (MC) 109 % of control | dose: 500.0 mg/kg/injection, schedule: Q01DX Z (ip), vehicle: methylcellulose (MC) 102 % of control

COc1ccc(/C=N/NC(=O)/C=C/c2ccccc2)c(OC)c1
inactive: [6] 97 % of control | [7] 98 % of control | [8] 92 % of control

O=c1[nH]c2ccsc2c(=O)n1OS(=O)(=O)c1ccccc1
inactive: [6] 100 % of control | [7] 100 % of control | [8] 88 % of control

O=C1NNCc2c1sc1ccccc21
inactive: [9] 98 % of control | [10] 98 % of control | [11] 102 % of control

CS(=O)(=O)N(CC(=O)O)Cc1ccccc1
inactive: [12] 101 % of control | dose: 50.0 mg/kg/injection, schedule: Q01DX009 (ip), vehicle: sodium bicarbonate 116 % of control | dose: 100.0 mg/kg/injection, schedule: Q01DX009 (ip), vehicle: saline 101 % of control | dose: 100.0 mg/kg/injection, schedule: Q01DX009 (ip), vehicle: sodium bicarbonate 106 % of control | dose: 100.0 mg/kg/injection, schedule: Q04DX003 (ip), vehicle: sodium bicarbonate 124 % of control | [13] 95 % of control | dose: 200.0 mg/kg/injection, schedule: Q01DX009 (ip), vehicle: sodium bicarbonate 101 % of control | dose: 200.0 mg/kg/injection, schedule: Q04DX003 (ip), vehicle: sodium bicarbonate 91 % of control | dose: 400.0 mg/kg/injection, schedule: Q01DX009 (ip), vehicle: saline 97 % of control | dose: 400.0 mg/kg/injection, schedule: Q01DX009 (ip), vehicle: sodium bicarbonate 104 % of control | dose: 400.0 mg/kg/injection, schedule: Q04DX003 (ip), vehicle: sodium bicarbonate 91 % of control

CC(=S)N1CCCCC1
inactive: dose: 50.0 mg/kg/injection, schedule: Q01DX001 (ip), vehicle: carboxymethylcellulose (CMC) 100 % of control

Cc1nc(N)[nH]c(=O)c1CCCNc1ccc(CCC2(CCl)OCCO2)cc1
inactive: dose: 50.0 mg/kg/injection, schedule: Q01DX Z (ip), vehicle: carboxymethylcellulose (CMC) 98 % of control | dose: 100.0 mg/kg/injection, schedule: Q01DX Z (ip), vehicle: carboxymethylcellulose (CMC) 101 % of control | dose: 200.0 mg/kg/injection, schedule: Q01DX Z (ip), vehicle: carboxymethylcellulose (CMC) 101 % of control | dose: 400.0 mg/kg/injection, schedule: Q01DX Z (ip), vehicle: carboxymethylcellulose (CMC) 90 % of control

COc1cc(C(=O)O)cc(OC)n1
inactive: [2] 102 % of control | [4] 96 % of control | [5] 96 % of control

O=C(/C=C/C(=O)Oc1ccc(Cl)cc1)Oc1ccc(Cl)cc1
inactive: [14] 96 % of control | [6] 102 % of control | [15] 97 % of control | [16] 101 % of control | [7] 102 % of control | [17] 108 % of control | [18] 99 % of control | [8] 100 % of control | [19] 107 % of control

O=C(NCCCC(NC(=O)OCc1ccccc1)C(=O)NCCCNCCCCNCCCNC(=O)C(CCCNC(=O)OCc1ccccc1)NC(=O)OCc1ccccc1)OCc1ccccc1 (stereo not given)
inactive: dose: 10.0 mg/kg/injection, schedule: Q01DX Z (ip), vehicle: saline 90 % of control

c1ccc(-c2cccc3c2N=C2C3=Nc3c2cccc3-c2ccccc2)cc1
inactive: [15] 96 % of control | [17] 95 % of control | [19] 93 % of control

CCOC(=O)c1cc(C(=O)OC)[nH]c(=O)c1C#N
inactive: [6] 93 % of control | [15] 92 % of control | [7] 92 % of control | [17] 92 % of control | [8] 90 % of control | [19] 88 % of control

Cc1cc(NC(=O)CCc2ccc(N3C(N)=NC(N)=NC3(C)C)cc2)ccc1S(=O)(=O)F (tested in a mixture with another compound)
inactive: [14] 90 % of control | [16] 90 % of control | [18] 92 % of control

Cc1c(C(=O)O)sc2ccc([N+](=O)[O-])cc12
inactive: dose: 100.0 mg/kg/injection, schedule: Q01DX001 (ip), vehicle: carboxymethylcellulose (CMC) 97 % of control | dose: 200.0 mg/kg/injection, schedule: Q01DX001 (ip), vehicle: carboxymethylcellulose (CMC) 95 % of control | dose: 400.0 mg/kg/injection, schedule: Q01DX001 (ip), vehicle: carboxymethylcellulose (CMC) 92 % of control

COC1CCC(NC(=O)NCCCl)CC1 (stereo not given)
inactive: [14] 95 % of control | [15] 103 % of control | [16] 102 % of control | [17] 97 % of control | [18] 95 % of control | [19] 97 % of control

CCCCCCCCCCCC(C)NCc1ccccc1 (stereo not given)
inactive: dose: 6.25 mg/kg/injection, schedule: Q01DX009 (ip), vehicle: saline with Tween-80 89 % of control | dose: 12.5 mg/kg/injection, schedule: Q01DX009 (ip), vehicle: saline with Tween-80 89 % of control | dose: 25.0 mg/kg/injection, schedule: Q01DX009 (ip), vehicle: saline with Tween-80 97 % of control | dose: 25.0 mg/kg/injection, schedule: Q04DX003 (ip), vehicle: saline 94 % of control | dose: 35.0 mg/kg/injection, schedule: Q01DX009 (ip), vehicle: acetone 92 % of control

CC(=O)OC1C2CC3C(C2)C31 (stereo not given)
inactive: dose: 50.0 mg/kg/injection, schedule: Q01DX009 (ip), vehicle: saline with Tween-80 105 % of control | [1] 97 % of control | [3] 94 % of control

CCOC(=O)C(Cc1c[nH]c2cc(N(CCO)CCO)ccc12)(NC(C)=O)C(=O)OCC
inactive: [9] 97 % of control | [10] 101 % of control | [11] 98 % of control

COc1ccc2c(c1)sc(=N)n2C
inactive: dose: 100.0 mg/kg/injection, schedule: Q04DX002 (ip), vehicle: saline 97 % of control | dose: 200.0 mg/kg/injection, schedule: Q04DX002 (ip), vehicle: saline 93 % of control

Cc1cc(CC(C)C)c(C(N)=O)cc1C
inactive: dose: 100.0 mg/kg/injection, schedule: Q01DX001 (ip), vehicle: other 108 % of control | dose: 200.0 mg/kg/injection, schedule: Q01DX001 (ip), vehicle: other 105 % of control | dose: 400.0 mg/kg/injection, schedule: Q01DX001 (ip), vehicle: other 103 % of control

CN1C2CCC1CC(OC1c3ccccc3CCc3ccccc31)C2 (stereo not given)
inactive: dose: 6.25 mg/kg/injection, schedule: Q01DX009 (ip), vehicle: saline 105 % of control | dose: 12.5 mg/kg/injection, schedule: Q01DX009 (ip), vehicle: saline 104 % of control | dose: 25.0 mg/kg/injection, schedule: Q01DX009 (ip), vehicle: saline 101 % of control | [12] 101 % of control

CC(C)C(=O)C(C)(C)C
inactive: [9] 102 % of control | [10] 98 % of control | [11] 107 % of control

CC(C)c1ccc(/C=C2\CSC/C(=C/c3ccc(C(C)C)cc3)C2=O)cc1
inactive: [10] 95 % of control | [13] 91 % of control

NC(=S)N/N=C1\CC(c2ccccc2)Oc2ccccc21 (stereo not given)
inactive: [9] 88 % of control
